“Also recorded” adds a separate entry of the source.
What was measured:
red blood cells = assay: Toxicity and oxidative stress in red blood cells
[1] = Observation of discomfort/intoxication after repeated oral microdosing; format: in vivo, rat; settings: Experiment 3: 0.1 or 0.3 mg/kg p.o. repeated; immediately and days after administration
Protocol: (§1) We performed three experiments testing Fmr1-^Δexon 8 rats and WT controls in the novel object recognition task using three different treatment schedules for psilocybin administration: • 1. Experiment 1: a single dose of either 1 (Hibicke et al., 2020) or 3 mg/kg psilocybin given intraperitoneally (i.p.) eight days before behavioral testing (FIG. 8A); • 2. Experiment 2: repeated microdoses of psilocybin (0.1 mg/kg) given i.p. three times every other day, with behavioral testing starting five days after the last administration (FIG. 8B); • 3. Experiment 3: repeated microdoses of psilocybin (0.1 or 0.3 mg/kg) (Higgins et al., 2021) given orally (p.o.) three times every other day, for two consecutive weeks, with behavioral testing starting five days after the last administration (FIG. 8C).
To increase the translational value of our findings, we finally decided to assess the effects of repeated oral administration of 0.1 and 0.3 mg/kg psilocybin microdoses, for two weeks every other day, in our Fmr1-^Δexon 8 rats. The animals were tested five days after the last treatment, to prevent any hallucinogenic effect of the drug at the time of behavioral performance.

[2] = 0.1 mg/kg, rats; Higgins et al., 2021; cited from earlier work
VPA-exposed rats = assay: Elevated plus-maze test in rats prenatally exposed to valproic acid; format: in vivo, rat; settings: offspring of VPA-treated pregnant rats
Protocol: Female Wistar rats (Charles River), weighing 250±15 g, were mated overnight. The morning when spermatozoa were found was designated as gestational day 1 (GD1). Pregnant rats were singly housed in Macrolon cages (401×26w x 20h cm), under controlled conditions (temperature 20-21° C., 55-65% relative humidity and 12/12h light cycle with lights on at 07:00 a.m.). Food and water were available ad libitum. On gestational day 12.5, females received a single intraperitoneal injection of either sodium valproate (VPA) or saline (SAL). […] Newborn litters found up to 5.00 p.m. were considered to be born on that day (Postnatal day (PND) 0). On PND 1, the litters were culled to eight animals (six males and two females). On PND 21, the pups were weaned and housed in groups of three. […]
The apparatus comprised two open and two closed arms (501×10×40 h cm) that extended from a common central platform (101×10 w cm). […] Each session was recorded with a camera positioned above the apparatus for subsequent behavioral analysis performed using the Observer 3.0 software (Noldus Information Technology). The following parameters were analyzed: […]
Data are expressed as mean±SEM. To assess the effects of prenatal VPA exposure and psilocybin on behavioral parameters, data were analyzed by two-way ANOVA, with prenatal treatment and postnatal treatment as factors. […]

wild-type (WT) animals = assay: Novel object recognition task in wild-type control rats; format: in vivo, rat
Protocol: The experiments were performed in Fmr1-^Δexon 8 rats on a Sprague-Dawley background (Horizon Discovery, formerly SAGE Labs, USA), proposed as a genetic model of ASD and rat model of FXS (Golden et al., 2019; Schiavi et al., 2022); the corresponding wild-type (WT) animals were used as controls.
as §1
We have recently shown that Fmr1-^Δexon 8 rats show impaired novel object recognition memory at adolescence (Schiavi et al., 2022). […] On the training trial, each rat was individually placed into an open-field arena containing two identical objects (A1 and A2), equidistant from each other, and allowed to explore the objects for 5 min. Thirty minutes later, one copy of the familiar object (A3) and a new object (B) were placed in the same location as during the training trial. Each rat was placed in the apparatus for 5 minutes, and the time spent exploring each object was recorded. The discrimination index was calculated as the difference in time exploring the novel and the familiar objects, expressed as the percentage ratio of the total time spent exploring both objects (Schiavi et al., 2022).
Data are expressed as mean±SEM and were analyzed by two-way ANOVA, with genotype (WT or Fmr1-^Δexon 8) and treatment (psilocybin or vehicle) as factors. Tukey's post hoc test was used for individual group comparisons. The accepted value for significance was set at p<0.05. Data were analyzed using GraphPad Prism 8 software.

Row | SMILES | toxicity in red blood cells (red blood cells) | signs of discomfort/intoxication in the animals [1] | side effects on motor activity or stereotypies [2] | safety of treatment in the VPA model (VPA-exposed rats) | cognitive performance of WT animals (% discrimination index) (wild-type (WT) animals; Experiment 1: single dose 1 mg/kg i.p. eight days before testing, WT rats) | cognitive performance of WT animals (% discrimination index) (wild-type (WT) animals; Experiment 1: single dose 3 mg/kg i.p. eight days before testing, WT rats vs WT vehicle, p<0.001, 3 mg/kg) | cognitive performance of WT animals (wild-type (WT) animals; Experiment 2: 0.1 mg/kg i.p. three times every other day, WT rats) | cognitive performance of WT animals (wild-type (WT) animals; Experiment 3: 0.1 or 0.3 mg/kg p.o. repeated for two weeks, WT rats) | performance in wild-type (WT) control animals (wild-type (WT) animals; repeated microdoses (schedule not given at the place))
1 | CN(C)CCc1c[nH]c2cccc(O)c12 [psilocin] | non-toxic |  |  |  |  |  |  |  | 
2 | CN(C)CCc1c[nH]c2cccc(OP(=O)(O)O)c12 [psilocybin] | non-toxic | did not induce any sign of discomfort/intoxication | devoid of side effects on motor activity or stereotypies | safe | did not affect the performance of WT animals | poorer cognitive performance; also recorded: detrimental effect | without affecting the performance of WT animals | without affecting the performance of WT animals | without affecting the performance

Reference: patent publication US20240424005A1, “DIAGNOSING, MONITORING AND TREATING NEUROLOGICAL DISEASE WITH PS[…] DERIVATIVES AND mRNA MEASUREMENTS” (NOVA MENTIS LIFE SCIENCE CORP., priority 2021, published 2024)
